Results taken from ChEMBL document CHEMBL1153994.
pIC50: −log10 of the molar value.

Columns and labels:
Phospholipase D1 = biological target: T1, Phospholipase D1 (Homo sapiens, UniProt Q13393); assay: Inhibition of PLD1 in human Calu1 cells; format: cell-based, Calu-1
T1 sequence (Q13393 whole entry): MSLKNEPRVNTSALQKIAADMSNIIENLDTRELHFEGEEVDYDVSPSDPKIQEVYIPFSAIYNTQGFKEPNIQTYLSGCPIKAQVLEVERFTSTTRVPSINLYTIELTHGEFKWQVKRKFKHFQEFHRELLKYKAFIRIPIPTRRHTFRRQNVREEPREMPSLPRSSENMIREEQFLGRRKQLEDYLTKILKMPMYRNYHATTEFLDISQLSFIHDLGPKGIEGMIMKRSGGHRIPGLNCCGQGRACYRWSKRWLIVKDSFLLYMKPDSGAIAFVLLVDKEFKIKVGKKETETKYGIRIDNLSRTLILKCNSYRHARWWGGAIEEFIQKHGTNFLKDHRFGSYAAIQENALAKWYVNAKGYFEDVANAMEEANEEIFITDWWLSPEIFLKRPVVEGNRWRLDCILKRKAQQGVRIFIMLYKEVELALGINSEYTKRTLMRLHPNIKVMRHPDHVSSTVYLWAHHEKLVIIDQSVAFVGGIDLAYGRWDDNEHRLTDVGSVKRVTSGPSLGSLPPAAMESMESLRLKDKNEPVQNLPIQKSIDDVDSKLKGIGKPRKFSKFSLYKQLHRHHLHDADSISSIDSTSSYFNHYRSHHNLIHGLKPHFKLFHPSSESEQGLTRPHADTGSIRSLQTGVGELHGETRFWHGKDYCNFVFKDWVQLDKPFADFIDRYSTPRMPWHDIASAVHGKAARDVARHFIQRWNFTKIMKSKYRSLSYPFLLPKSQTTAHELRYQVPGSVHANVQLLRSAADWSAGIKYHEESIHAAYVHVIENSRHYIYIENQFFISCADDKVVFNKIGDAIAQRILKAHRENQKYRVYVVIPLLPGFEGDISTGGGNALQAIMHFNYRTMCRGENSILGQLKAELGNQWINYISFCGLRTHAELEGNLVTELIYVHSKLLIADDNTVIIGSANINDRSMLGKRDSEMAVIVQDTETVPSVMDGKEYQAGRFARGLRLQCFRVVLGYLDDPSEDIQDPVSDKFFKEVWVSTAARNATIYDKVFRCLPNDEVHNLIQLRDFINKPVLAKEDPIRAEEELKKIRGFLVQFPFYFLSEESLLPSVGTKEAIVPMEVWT

Phospholipase D2 = Phospholipase D2 (Homo sapiens, UniProt O14939); assay: Inhibition of GFP-labeled PLD2 in human HEK293 cells; format: cell-based
HEK293 = assay: Selectivity for PLD1 in human Calu1 cells over GFP-labeled PLD2 in human HEK293 cells; format: cell-based

Sequence of Phospholipase D2 (O14939 whole entry): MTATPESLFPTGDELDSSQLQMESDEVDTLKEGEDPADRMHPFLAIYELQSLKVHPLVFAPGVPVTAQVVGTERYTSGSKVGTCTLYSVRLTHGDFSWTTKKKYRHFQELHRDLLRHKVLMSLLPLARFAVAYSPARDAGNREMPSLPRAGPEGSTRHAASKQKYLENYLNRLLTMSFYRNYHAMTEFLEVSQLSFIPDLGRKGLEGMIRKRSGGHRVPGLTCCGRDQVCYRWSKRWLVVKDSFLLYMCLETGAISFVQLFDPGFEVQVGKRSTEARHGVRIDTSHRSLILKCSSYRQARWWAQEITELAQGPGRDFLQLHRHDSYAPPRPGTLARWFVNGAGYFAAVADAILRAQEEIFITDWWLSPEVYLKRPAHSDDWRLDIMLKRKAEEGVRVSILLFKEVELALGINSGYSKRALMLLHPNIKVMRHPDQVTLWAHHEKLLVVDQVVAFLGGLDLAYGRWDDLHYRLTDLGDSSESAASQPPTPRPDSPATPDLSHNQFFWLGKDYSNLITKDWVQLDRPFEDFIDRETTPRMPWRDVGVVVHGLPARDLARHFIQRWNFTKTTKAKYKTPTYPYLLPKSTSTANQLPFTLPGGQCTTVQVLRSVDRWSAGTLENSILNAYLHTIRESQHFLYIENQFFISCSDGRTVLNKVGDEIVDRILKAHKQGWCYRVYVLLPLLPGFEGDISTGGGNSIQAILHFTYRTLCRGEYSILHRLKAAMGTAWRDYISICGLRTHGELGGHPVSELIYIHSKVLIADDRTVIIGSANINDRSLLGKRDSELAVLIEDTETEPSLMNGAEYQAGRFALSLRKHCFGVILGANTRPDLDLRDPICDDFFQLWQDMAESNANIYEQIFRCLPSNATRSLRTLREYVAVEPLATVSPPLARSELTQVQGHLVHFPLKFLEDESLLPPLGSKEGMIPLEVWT

| SMILES | pIC50 (Phospholipase D1) | pIC50 (Phospholipase D2) | fold change (FC) (HEK293) |
| --- | --- | --- | --- |
| C[C@@H](CN1CCC2(CC1)C(=O)NCN2c1ccccc1)NC(=O)[C@H]1C[C@@H]1c1ccccc1 | 5.59 | 4.52 |  |
| COc1cc(C(=O)NCCN2CCC3(CC2)C(=O)NCN3c2ccccc2)ccc1N | 5.23 | 6.26 |  |
| C[C@@H](CN1CCC2(CC1)C(=O)NCN2c1ccccc1)NC(=O)c1ccc(F)c(F)c1 | 6.82 | 6.70 |  |
| O=C(NCCN1CCC2(CC1)C(=O)NCN2c1ccccc1)c1ccc2ccccc2c1 |  |  | 9 |
| O=C(NCCN1CCC(n2c(=O)[nH]c3ccccc32)CC1)c1ccc2ccccc2c1 |  |  | > 1700 |
| Cc1cccc(C(=O)N[C@@H](C)CN2CCC3(CC2)C(=O)NCN3c2ccccc2)c1 | 5.47 | 4.57 |  |
| O=C(NCCN1CCC2(CC1)C(=O)NCN2c1ccccc1)c1cnc2ccccc2n1 | < 4.70 | < 4.70 |  |
| O=C(NCCN1CCC2(CC1)C(=O)NCN2c1ccccc1)c1cc2ccccc2s1 | 6.82 | 7.52 |  |
| O=C(C#Cc1ccccc1)NCCN1CCC2(CC1)C(=O)NCN2c1ccccc1 | 5.68 | 5.80 |  |
| O=C(NCCN1CCC2(CC1)C(=O)NCN2c1ccccc1)[C@H]1C[C@@H]1c1ccccc1 (relative stereo) | < 4.70 | < 4.70 |  |
